Test results reported in patent US20240228488A1 (TAKEDA PHARMACEUTICAL COMPANY LIMITED, priority 2021, published 2024).

What follows are compounds tested against human activated kallikrein enzyme (Homo sapiens, UniProt P03952) (assay: Plasma kallikrein inhibition, fluorogenic PFR-AMC substrate, 500 pM activated kallikrein format). Conditions: 500 pM activated kallikrein, 300 uM PFR-AMC, 30 min preincubation, 10 min reaction; read-out: Primary Dose Response Assay: Average EC50.
Assay type: biochemical
Experimental: Compounds were evaluated for inhibition of the human activated kallikrein enzyme in two formats of an assay employing a fluorogenic peptide substrate. In one assay format, the concentrations of reagents were as follows: 20 mM Tris pH 7.5, 1 mM EDTA, 150 mM sodium chloride, 0.1% PEG-400, 0.1% Triton X-100, 500 pM activated kallikrein enzyme, 300 uM Pro-Phe-Arg-7-amido-4-methylcoumarin (PFR-AMC) substrate. Prior to reaction initiation with substrate, enzyme and inhibitors were preincubated for 30 min at room temperature. After initiation with substrate, reactions were incubated for 10 min at room temperature and fluorescence emission at 460 nm from 380 nm excitation measured with a microplate reader. In another assay format, the concentrations of reagents were as follows: 20 mM Tris pH 7.5, 1 mM EDTA, 150 mM sodium chloride, 0.1% PEG-400, 0.1% Triton X-100, 5 pM activated kallikrein enzyme, 300 uM PFR-AMC substrate. Prior to reaction initiation with substrate, enzyme and inhibitors were preincubated for 30 min at room temperature. After initiation with substrate, reactions were incubated for 18 hr at room temperature and fluorescence emission at 460 nm from 380 nm excitation measured with a microplate reader.
Table 49 provides the results of the assay in the format with 500 pM activated kallikrein assay. For the compounds listed in Table 49, the EC50 values are reported according to the following ranges: A≤1.0 nM; 1.0 nM<B≤10 nM; 10 nM<C≤100 nM; 100 nM<D≤1000 nM; 1000 nM<E≤6000 nM; 6000 nM<F.
Table 51 provides comparative plasma kallikrein inhibition potency in the assay format with 500 pM activated kallikrein assay (described in detail in a preceding example). For the compounds listed in Table 51, the EC50 values are reported according to the following ranges: A≤1.0 nM; 1.0 nM<B≤10 nM; 10 nM<C≤100 nM; 100 nM<D≤1000 nM; 1000 nM<E≤6000 nM; 6000 nM<F.

Chain of human activated kallikrein enzyme (P03952 391-638 limits assumed): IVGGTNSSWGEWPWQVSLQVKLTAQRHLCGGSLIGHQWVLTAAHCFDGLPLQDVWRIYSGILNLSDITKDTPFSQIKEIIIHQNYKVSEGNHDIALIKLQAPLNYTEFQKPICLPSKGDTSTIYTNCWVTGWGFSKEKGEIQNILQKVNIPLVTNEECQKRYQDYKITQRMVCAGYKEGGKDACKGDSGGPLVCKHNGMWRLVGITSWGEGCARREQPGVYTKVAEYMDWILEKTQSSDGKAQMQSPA
Chain of human activated kallikrein enzyme (P03952 20-390 partner limits assumed): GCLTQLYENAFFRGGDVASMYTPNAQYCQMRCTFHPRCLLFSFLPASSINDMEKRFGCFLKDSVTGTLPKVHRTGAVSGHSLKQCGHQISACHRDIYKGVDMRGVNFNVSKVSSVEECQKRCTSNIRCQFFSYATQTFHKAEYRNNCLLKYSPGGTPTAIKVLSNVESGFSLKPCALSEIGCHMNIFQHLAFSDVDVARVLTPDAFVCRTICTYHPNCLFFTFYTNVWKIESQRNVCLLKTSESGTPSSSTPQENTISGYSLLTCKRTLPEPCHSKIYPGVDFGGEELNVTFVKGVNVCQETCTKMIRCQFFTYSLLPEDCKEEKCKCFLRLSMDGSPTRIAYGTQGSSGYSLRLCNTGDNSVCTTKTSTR

SMILES	EC50 [nM]
Cc1ccnc([C@H]2C[C@@H]2C(=O)Nc2nccn3nc(Cc4cn5cc(C6CC6)cc(N6CC(=O)N(C)C6=O)c5n4)cc23)n1 [Example I-649, (1S,2S)—N-(2-((6-cyclopropyl-8-(3-methyl-2,4-dioxoimidazolidin-1-yl)imidazo[1,2-a]pyridin-2-yl)methyl)pyrazolo[1,5-a]pyrazin-4-yl)-2-(4-methylpyrimidin-2-yl)cyclopropane-1-carboxamide]	< 1
Cc1ccnc([C@H]2C[C@@H]2C(=O)Nc2cc(O)cc(OCc3cn4cc(C5CC5)cc(N5CC(=O)N(C)C5=O)c4n3)n2)n1 [Example 661, (1S,2S)—N-(6-((6-cyclopropyl-8-(3-methyl-2,4-dioxoimidazolidin-1-yl)imidazo[1,2-a]pyridin-2-yl)methoxy)-4-hydroxypyridin-2-yl)-2-(4-methylpyrimidin-2-yl)cyclopropane-1-carboxamide]	1 to 10
Cc1ccnc([C@H]2C[C@@H]2C(=O)Nc2cc(F)cc(OCc3cn4cc(C5CC5)cc(N5CC(=O)N(C)C5=O)c4n3)n2)n1 [Example 675, (1S,2S)—N-(6-((6-cyclopropyl-8-(3-methyl-2,4-dioxoimidazolidin-1-yl)imidazo[1,2-a]pyridin-2-yl)methoxy)-4-fluoropyridin-2-yl)-2-(4-methylpyrimidin-2-yl)cyclopropane-1-carboxamide]	< 1
COc1ccc(C#N)c([C@H]2C[C@@H]2C(=O)Nc2cc(NCc3cn4cc(C5CC5)ccc4n3)ncn2)c1F (racemic) [Example 314, rac-(1S*,2S*)-2-(6-cyano-2-fluoro-3-methoxyphenyl)-N-(6-(((6-cyclopropylimidazo[1,2-a]pyridin-2-yl)methyl)amino)pyrimidin-4-yl)cyclopropane-1-carboxamide]	10 to 100
O=C(Nc1cc(NCc2cn3cc(C4CC4)ccc3n2)ncn1)[C@@H]1C[C@]12CCc1ccc(Cl)cc12 (racemic) [Example I-183, rac-(1R*,2R*)-6′-chloro-N-(6-(((6-cyclopropylimidazo[1,2-a]pyridin-2-yl)methyl)amino)pyrimidin-4-yl)-2′,3′-dihydrospiro[cyclopropane-1,1′-indene]-2-carboxamide]	10 to 100
Cc1ccnc([C@H]2C[C@@H]2C(=O)Nc2cc(N[C@H](C)c3cn4cc(C5CC5)cc(N5CC6CC6C5=O)c4n3)nc(C)n2)n1 (stereo partly drawn) [Example 433, (1S,2S)-N-(6-(((1R)-1-(6-cyclopropyl-8-(2-oxo-3-azabicyclo[3.1.0]hexan-3-yl)imidazo[1,2-a]pyridin-2-yl)ethyl)amino)-2-methylpyrimidin-4-yl)-2-(4-methylpyrimidin-2-yl)cyclopropane-1-carboxamide]	< 1
COc1cc([C@H]2C[C@@H]2C(=O)Nc2cc(NCc3cn4cc(C5CC5)ccc4n3)ccn2)cc(N)n1 (racemic) [Example 286, rac-(1S*,2S*)-2-(2-amino-6-methoxypyridin-4-yl)-N-(4-(((6-cyclopropylimidazo[1,2-a]pyridin-2-yl)methyl)amino)pyridin-2-yl)cyclopropane-1-carboxamide]	10 to 100
O=C(Nc1cc(NC(c2cn3cc(C4CC4)ccc3n2)C(F)(F)F)ccn1)[C@H]1C[C@@H]1c1cccc(Cl)c1 (some centres unmarked) [Example 141]	100 to 1000
COc1ccnc([C@H]2C[C@@H]2C(=O)Nc2cc(NCc3cn4cc(C5CC5)ccc4n3)ncn2)c1 (racemic) [Example I-204, rac-(1S*,2S*)-N-(6-(((6-cyclopropylimidazo[1,2-a]pyridin-2-yl)methyl)amino)pyrimidin-4-yl)-2-(4-methoxypyridin-2-yl)cyclopropane-1-carboxamide]	100 to 1000
Cc1ccnc([C@H]2C[C@@H]2C(=O)Nc2ncnc3nn(Cc4cn5cc(C6CC6)cc(N6CC(=O)N(C)C6=O)c5n4)cc23)n1 (single isomer, unassigned) [Example I-634, rac-(1S*,2S*)—N-(2-((6-cyclopropyl-8-(3-methyl-2,4-dioxoimidazolidin-1-yl)imidazo[1,2-a]pyridin-2-yl)methyl)-2H-pyrazolo[3,4-d]pyrimidin-4-yl)-2-(4-methylpyrimidin-2-yl)cyclopropane-1-carboxamide]	< 1

Continued, values first:

EC50 [nM]	SMILES
1 to 10	O=C(Nc1cc(NCc2cn3cc(C4CC4)cc(Cl)c3n2)ncn1)[C@H]1C[C@@H]1c1cccc(Cl)c1 (racemic) [Example 59, rac-(1S*,2S*)-N-(6-(((8-chloro-6-cyclopropylimidazo[1,2-α]pyridin-2-yl)methyl)amino)pyrimidin-4-yl)-2-(3-chlorophenyl)cyclopropane-1-carboxamide]
100 to 1000	N#Cc1cc(Cl)sc1[C@H]1C[C@@H]1C(=O)Nc1cc(NCc2cn3cc(C4CC4)ccc3n2)ncn1 (racemic) [Example I-179, rac-(1S*,2S*)-2-(5-chloro-3-cyanothiophen-2-yl)-N-(6-(((6-cyclopropylimidazo[1,2-a]pyridin-2-yl)methyl)amino)pyrimidin-4-yl)cyclopropane-1-carboxamide]
< 1	O=C(Nc1cc(NCc2cn3cc(C4CC4)cc(-n4cnnc4)c3n2)ncn1)[C@H]1C[C@@H]1c1cccc(Cl)c1 (racemic) [Example 405, rac-(1S*,2S*)-2-(3-chlorophenyl)-N-(6-(((6-cyclopropyl-8-(4H-1,2,4-triazol-4-yl)imidazo[1,2-a]pyridin-2-yl)methyl)amino)pyrimidin-4-yl)cyclopropane-1-carboxamide]
> 6000	COc1cc([C@H]2C[C@@H]2C(=O)Nc2cc(NCc3cn4cc(C5CC5)ccc4n3)ncn2)cc(Cl)n1 (racemic) [Example I-187, rac-(1S*,2S*)-2-(2-chloro-6-methoxypyridin-4-yl)-N-(6-(((6-cyclopropylimidazo[1,2-a]pyridin-2-yl)methyl)amino)pyrimidin-4-yl)cyclopropane-1-carboxamide]
1 to 10	C[S+]([O-])c1nc(NCc2cn3cc(C4CC4)ccc3n2)cc(NC(=O)[C@H]2C[C@@H]2c2cccc(Cl)c2)n1 (relative stereo) [Example 109, rac-(1S*,2S*)-2-(3-chlorophenyl)-N-(6-(((6-cyclopropylimidazo[1,2-a]pyridin-2-yl)methyl)amino)-2-(methylsulfinyl)pyrimidin-4-yl)cyclopropane-1-carboxamide]
100 to 1000	O=C(Nc1cc(NCc2cn3cc(C4CC4)cc(N4CCCC4C(F)(F)F)c3n2)ncn1)[C@H]1C[C@@H]1c1cccc(Cl)c1 (stereo partly drawn) [Example I-158, (1S,2S)-2-(3-chlorophenyl)-N-(6-(((6-cyclopropyl-8-(2-(trifluoromethyl)pyrrolidin-1-yl)imidazo[1,2-a]pyridin-2-yl)methyl)amino)pyrimidin-4-yl)cyclopropane-1-carboxamide]
100 to 1000	COc1cccc([C@H]2C[C@@H]2C(=O)Nc2cc(NCc3cn4cc(C5CC5)ccc4n3)ncn2)c1 (racemic) [Example 53, rac-(1S*,2S*)-N-(6-(6-cyclopropylimidazo[1,2-a]pyridin-2-yl)methyl)amino)pyrimidin-4-yl)-2-(3-methoxyphenyl)cyclopropane-1-carboxamide]
< 1	N#Cc1ccc(Cl)cc1[C@H]1C[C@@H]1C(=O)Nc1cc(NCc2cn3cc(C4CC4)cc(N4CCCC4=O)c3n2)ncn1 (racemic) [Example 334]
10 to 100	O=C(Nc1cc(N(CCO)Cc2cn3cc(C4CC4)ccc3n2)ncn1)[C@H]1C[C@@H]1c1cccc(Cl)c1 [Example 77, (1S,2S)-2-(3-chlorophenyl)-N-(6-(((6-cyclopropylimidazo[1,2-a]pyridin-2-yl)methyl)(2-hydroxyethyl)amino)pyrimidin-4-yl)cyclopropane-1-carboxamide]
> 6000	O=C(Nc1cc(NCc2cn3cc(C4CC4)ccc3n2)ncn1)[C@H]1C[C@@H]1c1cccc(C2CC2)c1 (racemic) [Example 351, rac-(1S*,2S*)—N-(6-(((6-cyclopropylimidazo[1,2-a]pyridin-2-yl)methyl)amino)pyrimidin-4-yl)-2-(3-cyclopropylphenyl)cyclopropane-1-carboxamide]
> 6000	C[C@H]1[C@H](C(=O)Nc2cc(NCc3cn4cc(C5CC5)ccc4n3)ncn2)[C@H]1c1cccc(Cl)c1 (single isomer, unassigned) [Example 506, (1R*,2R*,3S*)-2-(3-chlorophenyl)-N-(6-(((6-cyclopropylimidazo[1,2-a]pyridin-2-yl)methyl)amino)pyrimidin-4-yl)-3-methylcyclopropane-1-carboxamide]
100 to 1000	COc1cc([C@H]2C[C@@H]2C(=O)Nc2cc(NCc3cn4cc(C5CC5)ccc4n3)ncn2)cc(N)n1 (racemic) [Example 277, rac-(1S*,2S*)-2-(2-amino-6-methoxypyridin-4-yl)-N-(6-(((6-cyclopropylimidazo[1,2-a]pyridin-2-yl)methyl)amino)pyrimidin-4-yl)cyclopropane-1-carboxamide]

Same assay, conditions: comparative compounds, 500 pM activated kallikrein format; read-out: Primary Dose Response Assay: Average EC50

EC50 [nM]	SMILES
100 to 1000	Clc1cccc([C@H]2C[C@@H]2CNc2cc(NCc3cn4cc(C5CC5)ccc4n3)ncn2)c1
